Experimental data from ChEMBL document CHEMBL1201862, “PubChem BioAssay data set” (2004).
Calls of active or inactive are those of the source.

How the values were obtained:
[1] = viability of uninfected HEp-2 cells – cell-based, HTS, cytotoxicity control for RSV inhibitor project, dose response (AID 2410); type: functional; conditions: human respiratory syncytial virus
Vero = experiment: cells; type: functional, cell-based; conditions: Chlorocebus sabaeus
[2] = target: T1, Dual specificity protein phosphatase 6 (Rattus norvegicus, UniProt Q64346); experiment: inhibition of rat DUSP6 enzyme activity – biochemical, in vitro, primary screen (AID 425)
T1 sequence (Q64346 whole entry): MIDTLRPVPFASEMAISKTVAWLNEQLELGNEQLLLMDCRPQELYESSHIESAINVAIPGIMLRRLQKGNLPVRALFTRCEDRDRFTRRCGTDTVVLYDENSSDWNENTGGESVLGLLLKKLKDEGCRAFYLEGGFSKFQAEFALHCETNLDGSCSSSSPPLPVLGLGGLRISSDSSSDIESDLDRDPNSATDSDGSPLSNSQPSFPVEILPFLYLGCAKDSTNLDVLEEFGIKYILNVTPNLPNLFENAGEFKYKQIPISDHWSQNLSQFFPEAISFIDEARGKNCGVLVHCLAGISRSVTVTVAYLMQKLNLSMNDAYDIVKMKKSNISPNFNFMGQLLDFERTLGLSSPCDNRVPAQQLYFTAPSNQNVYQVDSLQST

[3] = target: Endoplasmic reticulum aminopeptidase 1 (Homo sapiens, UniProt Q9NZ08); experiment: inhibition of human ERAP1 enzyme activity – biochemical, cherry-pick, set 2, plate reader, dose response (AID 743314)
HeLa = experiment: viability loss in HeLa cells – cell-based, 24 h, cherry-picked samples, cytotoxicity control, dose response (AID 504726); type: functional; conditions: Homo sapiens;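 also: potency for cytotoxicity as loss of luminescence signal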
[4] = NIH-3T3 fibroblast cytotoxicity, dose response, cytotoxicity control, cell-based, fluorescence, Alamar Blue, secondary assay (AID 2327); type: functional;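 also: NIH-3T3 mouse fibroblasts cultured with fluconazole at 8 µg/mL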
[5] = fluconazole-exposed Candida albicans growth modulators – fluorescence, retest, confirmation (AID 2467); type: functional, cell-based
[6] = microbe, parasite or virus in culture; type: functional; conditions: Mycobacterium tuberculosis
INS1 = experiment: INS-1E survival protection against cytokine death – cell-based, luminescence, retest, dose response (AID 449756); type: functional; conditions: Rattus norvegicus;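 also: cell death triggered by IL-1 beta plus TNF-alpha plus IFN-gamma mixture; protective hits raise ATP signal compared with cytokine alone wells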
[7] = target: T2, DNA repair protein RAD52 homolog (Homo sapiens, UniProt P43351); type: functional, biochemical
T2 sequence (P43351 whole entry): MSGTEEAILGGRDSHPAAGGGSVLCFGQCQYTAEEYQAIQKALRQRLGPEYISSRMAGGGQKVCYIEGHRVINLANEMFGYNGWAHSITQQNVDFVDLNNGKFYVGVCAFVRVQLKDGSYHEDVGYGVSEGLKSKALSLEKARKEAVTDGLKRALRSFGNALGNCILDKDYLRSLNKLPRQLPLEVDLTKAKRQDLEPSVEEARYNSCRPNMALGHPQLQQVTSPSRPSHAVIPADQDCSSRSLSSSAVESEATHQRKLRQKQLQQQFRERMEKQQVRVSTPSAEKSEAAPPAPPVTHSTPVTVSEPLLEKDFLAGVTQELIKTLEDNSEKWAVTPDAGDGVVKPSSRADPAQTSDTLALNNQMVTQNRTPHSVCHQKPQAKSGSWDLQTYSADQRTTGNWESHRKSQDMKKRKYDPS

[8] = target: T3, COUP transcription factor 2 (Homo sapiens, UniProt P24468); experiment: Luminescence-based cell-based high throughput dose response assay to identify inhibitors of COUP-TFII (NR2F2).; type: functional;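 also: HEK293 cells transiently cotransfected with COUP-TFII expression vector and reporter; luciferase reporter luminescence driven by COUP-TFII from the pX2-168 reporter plasmid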
T3 sequence (P24468 whole entry): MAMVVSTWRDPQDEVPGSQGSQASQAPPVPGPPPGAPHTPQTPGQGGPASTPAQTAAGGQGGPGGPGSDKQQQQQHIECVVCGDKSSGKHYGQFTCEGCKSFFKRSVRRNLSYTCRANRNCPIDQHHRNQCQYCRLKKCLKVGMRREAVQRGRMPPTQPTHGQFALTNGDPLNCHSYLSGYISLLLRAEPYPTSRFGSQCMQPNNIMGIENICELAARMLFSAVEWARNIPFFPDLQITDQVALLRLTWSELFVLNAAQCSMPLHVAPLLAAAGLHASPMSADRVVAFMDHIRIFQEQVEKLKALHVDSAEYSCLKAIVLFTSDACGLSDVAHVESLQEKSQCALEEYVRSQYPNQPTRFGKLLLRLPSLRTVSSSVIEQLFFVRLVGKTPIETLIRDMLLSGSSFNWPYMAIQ

[9] = target: Luciferin 4-monooxygenase (Photinus pyralis, UniProt P08659); experiment: inhibition of purified Photinus pyralis luciferase – biochemical, luminescence, dose response (AID 1891)
[10] = Luminescence Cell-Based Dose Confirmation HTS to Identify Inhibitors of Platelet Dense Granule Release. [Related pubchem assays: 1663 (Primary HTS), 1678 (Summary of Project)]; type: functional
Protein skinhead-1 = target: T4, Protein skinhead-1 (Caenorhabditis elegans, UniProt P34707); type: functional
T4 sequence (P34707 whole entry): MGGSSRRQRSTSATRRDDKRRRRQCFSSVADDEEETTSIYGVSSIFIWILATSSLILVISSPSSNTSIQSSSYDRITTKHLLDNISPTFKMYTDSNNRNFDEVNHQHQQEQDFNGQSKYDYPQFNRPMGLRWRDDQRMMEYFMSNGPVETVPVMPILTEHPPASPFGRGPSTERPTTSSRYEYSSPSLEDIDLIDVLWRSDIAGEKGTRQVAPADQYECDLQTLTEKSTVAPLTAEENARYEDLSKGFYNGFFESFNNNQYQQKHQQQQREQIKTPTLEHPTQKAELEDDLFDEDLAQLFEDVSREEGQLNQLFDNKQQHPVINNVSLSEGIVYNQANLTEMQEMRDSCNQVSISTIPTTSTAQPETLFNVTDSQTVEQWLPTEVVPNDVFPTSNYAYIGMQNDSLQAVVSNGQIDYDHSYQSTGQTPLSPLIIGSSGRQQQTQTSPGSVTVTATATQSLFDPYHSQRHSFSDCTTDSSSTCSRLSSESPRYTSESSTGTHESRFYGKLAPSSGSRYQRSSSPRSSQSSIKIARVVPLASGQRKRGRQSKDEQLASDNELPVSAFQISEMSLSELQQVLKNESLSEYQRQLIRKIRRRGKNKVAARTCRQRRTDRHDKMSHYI

[11] = Luminescence-based cell-based high throughput dose response assay to identify activators of the DAF-12 from the parasite S. stercoralis (ssDAF-12).; type: functional
[12] = target: Neurotensin receptor type 1 (Homo sapiens, UniProt P30989); type: functional;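 also: Image-based confirmatory dose-response assay measuring agonist activity at NTR1; NTR1-expressing U2OS osteosarcoma cells imaged for beta-arrestin GFP spot formation; agonist potency where compounds increase beta-arrestin recruitment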
Genome polyprotein = Genome polyprotein (dengue virus type 2, UniProt P29990); experiment: flavivirus cap methylation enzyme inhibition – biochemical, confirmation dose response, primary screen (AID 588689); type: functional
[13] = target: T5, Rac GTPase-activating protein 1 (Homo sapiens, UniProt Q9H0H5); experiment: blockers of MgcRacGAP-driven Rac1 GTP hydrolysis – biochemical, ADP Hunter fluorescence, primary and confirmatory, confirmation (AID 624330); type: functional
T5 sequence (Q9H0H5 whole entry): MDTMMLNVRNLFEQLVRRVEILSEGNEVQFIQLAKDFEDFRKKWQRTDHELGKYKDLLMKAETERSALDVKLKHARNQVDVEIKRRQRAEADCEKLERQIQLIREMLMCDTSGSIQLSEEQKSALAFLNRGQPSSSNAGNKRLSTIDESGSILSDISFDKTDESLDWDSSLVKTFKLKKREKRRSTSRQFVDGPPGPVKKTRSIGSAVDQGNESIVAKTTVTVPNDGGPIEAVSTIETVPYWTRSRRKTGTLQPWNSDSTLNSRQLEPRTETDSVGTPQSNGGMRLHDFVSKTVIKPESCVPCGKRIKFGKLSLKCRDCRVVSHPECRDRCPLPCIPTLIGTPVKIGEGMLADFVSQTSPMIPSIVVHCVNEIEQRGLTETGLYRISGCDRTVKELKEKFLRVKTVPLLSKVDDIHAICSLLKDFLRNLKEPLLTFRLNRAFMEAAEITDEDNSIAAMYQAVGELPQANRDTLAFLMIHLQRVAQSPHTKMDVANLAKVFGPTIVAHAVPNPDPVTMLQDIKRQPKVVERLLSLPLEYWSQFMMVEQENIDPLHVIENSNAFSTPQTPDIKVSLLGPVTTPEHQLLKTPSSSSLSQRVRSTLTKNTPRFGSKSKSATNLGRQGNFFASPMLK

Sequence of Neurotensin receptor type 1 (P30989 whole entry): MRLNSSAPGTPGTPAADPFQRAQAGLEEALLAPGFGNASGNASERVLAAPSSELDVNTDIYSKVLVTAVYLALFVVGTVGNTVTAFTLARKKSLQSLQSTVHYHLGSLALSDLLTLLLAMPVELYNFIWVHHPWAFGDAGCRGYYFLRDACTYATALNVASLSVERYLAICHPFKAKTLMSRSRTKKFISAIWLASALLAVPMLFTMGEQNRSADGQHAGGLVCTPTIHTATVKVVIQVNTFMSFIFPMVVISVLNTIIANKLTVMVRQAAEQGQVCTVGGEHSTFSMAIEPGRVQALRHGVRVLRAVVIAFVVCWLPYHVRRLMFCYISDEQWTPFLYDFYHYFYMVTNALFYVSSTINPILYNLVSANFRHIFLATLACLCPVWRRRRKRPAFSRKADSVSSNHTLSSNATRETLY
Sequence of Endoplasmic reticulum aminopeptidase 1 (Q9NZ08 whole entry): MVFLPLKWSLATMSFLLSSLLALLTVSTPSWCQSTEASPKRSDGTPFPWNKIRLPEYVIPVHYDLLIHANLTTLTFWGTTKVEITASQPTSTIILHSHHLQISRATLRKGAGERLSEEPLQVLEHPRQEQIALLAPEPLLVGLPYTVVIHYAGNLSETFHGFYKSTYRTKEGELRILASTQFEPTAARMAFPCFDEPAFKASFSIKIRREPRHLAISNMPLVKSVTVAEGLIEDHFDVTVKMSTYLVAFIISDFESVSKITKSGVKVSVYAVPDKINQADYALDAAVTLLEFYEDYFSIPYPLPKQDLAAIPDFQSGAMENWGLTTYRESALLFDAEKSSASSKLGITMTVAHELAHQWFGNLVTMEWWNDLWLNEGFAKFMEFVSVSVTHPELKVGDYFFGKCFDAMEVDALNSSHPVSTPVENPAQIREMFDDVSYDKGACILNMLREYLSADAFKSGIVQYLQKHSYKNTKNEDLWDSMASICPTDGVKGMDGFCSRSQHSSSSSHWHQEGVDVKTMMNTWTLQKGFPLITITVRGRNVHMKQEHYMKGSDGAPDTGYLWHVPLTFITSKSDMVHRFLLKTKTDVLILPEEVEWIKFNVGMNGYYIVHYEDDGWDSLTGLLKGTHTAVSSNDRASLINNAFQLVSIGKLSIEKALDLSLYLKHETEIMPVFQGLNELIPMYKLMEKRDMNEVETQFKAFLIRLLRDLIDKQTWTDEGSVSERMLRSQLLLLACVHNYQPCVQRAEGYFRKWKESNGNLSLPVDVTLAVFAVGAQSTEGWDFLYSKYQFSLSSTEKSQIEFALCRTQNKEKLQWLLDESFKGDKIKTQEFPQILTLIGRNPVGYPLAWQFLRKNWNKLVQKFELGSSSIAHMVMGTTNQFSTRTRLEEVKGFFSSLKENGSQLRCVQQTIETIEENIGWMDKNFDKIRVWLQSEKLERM
Sequence of Genome polyprotein (P29990 2492-3391 limits assumed): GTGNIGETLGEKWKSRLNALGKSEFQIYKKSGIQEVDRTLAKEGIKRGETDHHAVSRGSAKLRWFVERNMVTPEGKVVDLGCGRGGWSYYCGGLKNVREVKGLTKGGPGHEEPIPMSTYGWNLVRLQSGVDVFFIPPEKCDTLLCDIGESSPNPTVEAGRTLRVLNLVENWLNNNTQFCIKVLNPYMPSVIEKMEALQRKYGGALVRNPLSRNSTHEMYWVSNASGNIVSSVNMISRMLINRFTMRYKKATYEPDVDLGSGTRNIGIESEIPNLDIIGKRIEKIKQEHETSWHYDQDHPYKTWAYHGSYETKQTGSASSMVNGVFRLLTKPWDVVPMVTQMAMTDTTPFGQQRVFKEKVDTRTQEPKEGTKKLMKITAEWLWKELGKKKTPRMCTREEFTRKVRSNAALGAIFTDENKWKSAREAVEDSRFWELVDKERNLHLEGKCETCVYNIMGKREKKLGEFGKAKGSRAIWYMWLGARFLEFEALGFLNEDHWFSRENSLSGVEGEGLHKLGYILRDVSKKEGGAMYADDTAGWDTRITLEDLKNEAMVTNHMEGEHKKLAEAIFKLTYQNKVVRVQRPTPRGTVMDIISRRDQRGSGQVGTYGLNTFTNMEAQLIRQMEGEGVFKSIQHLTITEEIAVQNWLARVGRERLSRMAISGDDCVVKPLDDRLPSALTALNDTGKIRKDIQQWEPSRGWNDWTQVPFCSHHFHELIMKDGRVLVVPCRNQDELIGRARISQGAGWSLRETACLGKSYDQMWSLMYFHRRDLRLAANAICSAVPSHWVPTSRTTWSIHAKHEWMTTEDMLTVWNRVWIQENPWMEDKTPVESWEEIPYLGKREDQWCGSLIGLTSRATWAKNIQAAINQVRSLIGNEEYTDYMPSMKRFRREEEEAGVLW
Sequence of Luciferin 4-monooxygenase (P08659 whole entry): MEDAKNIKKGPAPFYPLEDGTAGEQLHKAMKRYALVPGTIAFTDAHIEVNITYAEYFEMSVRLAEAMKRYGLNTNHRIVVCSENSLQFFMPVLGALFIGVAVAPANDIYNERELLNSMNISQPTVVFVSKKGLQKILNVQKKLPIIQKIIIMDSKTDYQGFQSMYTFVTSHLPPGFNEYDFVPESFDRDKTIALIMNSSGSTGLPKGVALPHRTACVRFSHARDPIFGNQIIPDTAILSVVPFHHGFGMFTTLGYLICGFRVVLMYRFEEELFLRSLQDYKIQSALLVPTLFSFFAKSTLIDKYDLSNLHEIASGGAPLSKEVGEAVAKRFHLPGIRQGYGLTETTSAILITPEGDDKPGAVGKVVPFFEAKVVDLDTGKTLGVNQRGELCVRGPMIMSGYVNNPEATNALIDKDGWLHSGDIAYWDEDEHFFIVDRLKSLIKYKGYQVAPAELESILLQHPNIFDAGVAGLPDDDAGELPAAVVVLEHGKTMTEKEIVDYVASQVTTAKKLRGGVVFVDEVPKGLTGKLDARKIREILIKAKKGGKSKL

With Cc1ccc(NC(=O)CN(C)C(=O)CSc2nc3ccccc3c(=O)n2Cc2ccco2)cc1 the CC50 [1] was 36.7 µM (active) and the IC50 (cells) was 44.3 µM (active).

For O=C(CCNC(=O)c1ccc(Br)cc1)NC1CCCc2ccccc21 (stereo unspecified), the CC50 [1] was 43.7 µM (active), the IC50 (Vero) was 9.27 µM (active) and the IC50 (cells) was 6.76 µM (active).

In the case of COc1ccc(Cc2nn3c(-c4cc(OC)c(OC)c(OC)c4)nnc3s2)cc1, the IC50 [2] is reported as > 100 µM (not active).

In the case of CN(C)Cc1c(O)ccc2cc(-c3nc4ccccc4n3C)c(=O)oc12, the AC50 [3] is reported as 1.56 µM (active).

For Cc1ccc(/C=C/S(=O)(=O)N2CCC(C(=O)O)CC2)cc1, the AC50 (HeLa) was > 350 µM (inactive).

For Oc1ccc(-[n+]2c(-c3ccccc3)cc(-c3ccccc3)cc2-c2ccccc2)cc1.[O-][Cl+3]([O-])([O-])[O-], the EC50 [4] was > 160 µM (inactive), the EC50 [5] was 0.879 µM (active) and the CC50 [6] was 9.19 µM (active). For the same molecule, the AC50 (INS1) was 3.38 µM (active), the AC50 [7] was 9.88 µM (active) and the IC50 [8] was 9.1 µM (active).

For O=C(/C=C/Nc1ccccc1F)c1cccs1, the EC50 [9] was 0.641 µM (active), the EC50 [10] was 4.56 µM (active) and the IC50 (Protein skinhead-1) was 14.7 µM (active). For the same molecule, the IC50 [11] was > 67.6 µM (inactive).

In the case of CC1(C)CC(=O)C(C(C2=C(O)CC(C)(C)CC2=O)c2ccc(Br)s2)C(=O)C1 (stereo unspecified), the EC50 [12] is reported as 19.6 µM (active), the IC50 (Genome polyprotein) is reported as 21.5 µM (active) and the IC50 [13] is reported as 61.5 µM (active).
